± gives the expanded uncertainty stated by the source.
Conditions: 293.15 K, Ring tensiometer

Row | SMILES | surface tension liquid-gas [mN/m]
1 | CCCC[n+]1ccn(C)c1.O=S(=O)([N-]S(=O)(=O)C(F)(F)F)C(F)(F)F | 33.6 ± 0.63
2 | CCCCCn1cc[n+](C)c1.O=S(=O)([N-]S(=O)(=O)C(F)(F)F)C(F)(F)F | 32.9 ± 0.62
3 | CCCCCCCn1cc[n+](C)c1.O=S(=O)([N-]S(=O)(=O)C(F)(F)F)C(F)(F)F | 32 ± 0.6
4 | CCCCCCCCn1cc[n+](C)c1.O=S(=O)([N-]S(=O)(=O)C(F)(F)F)C(F)(F)F | 31.93 ± 0.6
5 | CCCCCC[n+]1ccn(C)c1.O=S(=O)([N-]S(=O)(=O)C(F)(F)F)C(F)(F)F | 32.31 ± 0.61
6 | CCCCCCCCCCn1cc[n+](C)c1.O=S(=O)([N-]S(=O)(=O)C(F)(F)F)C(F)(F)F | 32.12 ± 0.6
7 | CCn1cc[n+](C)c1.O=S(=O)([N-]S(=O)(=O)C(F)(F)F)C(F)(F)F | 36.94 ± 0.68
8 | CCCn1cc[n+](C)c1.O=S(=O)([N-]S(=O)(=O)C(F)(F)F)C(F)(F)F | 34.87 ± 0.65

Same assay, conditions: 303.15 K, Ring tensiometer

Row | SMILES | surface tension liquid-gas [mN/m]
9 | CCCC[n+]1ccn(C)c1.O=S(=O)([N-]S(=O)(=O)C(F)(F)F)C(F)(F)F | 33.09 ± 0.62
10 | CCCCCn1cc[n+](C)c1.O=S(=O)([N-]S(=O)(=O)C(F)(F)F)C(F)(F)F | 32.41 ± 0.61
11 | CCCCCCCn1cc[n+](C)c1.O=S(=O)([N-]S(=O)(=O)C(F)(F)F)C(F)(F)F | 31.36 ± 0.59
12 | CCCCCCCCn1cc[n+](C)c1.O=S(=O)([N-]S(=O)(=O)C(F)(F)F)C(F)(F)F | 31.3 ± 0.59
13 | CCCCCC[n+]1ccn(C)c1.O=S(=O)([N-]S(=O)(=O)C(F)(F)F)C(F)(F)F | 31.76 ± 0.6
14 | CCCCCCCCCCn1cc[n+](C)c1.O=S(=O)([N-]S(=O)(=O)C(F)(F)F)C(F)(F)F | 31.34 ± 0.59
15 | CCn1cc[n+](C)c1.O=S(=O)([N-]S(=O)(=O)C(F)(F)F)C(F)(F)F | 36.43 ± 0.67
16 | CCCn1cc[n+](C)c1.O=S(=O)([N-]S(=O)(=O)C(F)(F)F)C(F)(F)F | 34.22 ± 0.64

Same assay, conditions: 313.15 K, Ring tensiometer

Row | SMILES | surface tension liquid-gas [mN/m]
17 | CCCC[n+]1ccn(C)c1.O=S(=O)([N-]S(=O)(=O)C(F)(F)F)C(F)(F)F | 32.5 ± 0.61
18 | CCCCCn1cc[n+](C)c1.O=S(=O)([N-]S(=O)(=O)C(F)(F)F)C(F)(F)F | 31.83 ± 0.6
19 | CCCCCCCn1cc[n+](C)c1.O=S(=O)([N-]S(=O)(=O)C(F)(F)F)C(F)(F)F | 30.66 ± 0.58
20 | CCCCCCCCn1cc[n+](C)c1.O=S(=O)([N-]S(=O)(=O)C(F)(F)F)C(F)(F)F | 30.57 ± 0.58
21 | CCCCCC[n+]1ccn(C)c1.O=S(=O)([N-]S(=O)(=O)C(F)(F)F)C(F)(F)F | 31.2 ± 0.59
22 | CCCCCCCCCCn1cc[n+](C)c1.O=S(=O)([N-]S(=O)(=O)C(F)(F)F)C(F)(F)F | 30.7 ± 0.58
23 | CCn1cc[n+](C)c1.O=S(=O)([N-]S(=O)(=O)C(F)(F)F)C(F)(F)F | 35.92 ± 0.66
24 | CCCn1cc[n+](C)c1.O=S(=O)([N-]S(=O)(=O)C(F)(F)F)C(F)(F)F | 33.73 ± 0.63

Same assay, conditions: 323.15 K, Ring tensiometer

Row | SMILES | surface tension liquid-gas [mN/m]
25 | CCCC[n+]1ccn(C)c1.O=S(=O)([N-]S(=O)(=O)C(F)(F)F)C(F)(F)F | 31.92 ± 0.6
26 | CCCCCn1cc[n+](C)c1.O=S(=O)([N-]S(=O)(=O)C(F)(F)F)C(F)(F)F | 31.27 ± 0.59
27 | CCCCCCCn1cc[n+](C)c1.O=S(=O)([N-]S(=O)(=O)C(F)(F)F)C(F)(F)F | 30.02 ± 0.57
28 | CCCCCCCCn1cc[n+](C)c1.O=S(=O)([N-]S(=O)(=O)C(F)(F)F)C(F)(F)F | 29.98 ± 0.57
29 | CCCCCC[n+]1ccn(C)c1.O=S(=O)([N-]S(=O)(=O)C(F)(F)F)C(F)(F)F | 30.6 ± 0.58
30 | CCCCCCCCCCn1cc[n+](C)c1.O=S(=O)([N-]S(=O)(=O)C(F)(F)F)C(F)(F)F | 30.1 ± 0.57
31 | CCn1cc[n+](C)c1.O=S(=O)([N-]S(=O)(=O)C(F)(F)F)C(F)(F)F | 35.51 ± 0.66
32 | CCCn1cc[n+](C)c1.O=S(=O)([N-]S(=O)(=O)C(F)(F)F)C(F)(F)F | 33.31 ± 0.62

Same assay, conditions: 333.15 K, Ring tensiometer

Row | SMILES | surface tension liquid-gas [mN/m]
33 | CCCC[n+]1ccn(C)c1.O=S(=O)([N-]S(=O)(=O)C(F)(F)F)C(F)(F)F | 31.35 ± 0.59
34 | CCCCCn1cc[n+](C)c1.O=S(=O)([N-]S(=O)(=O)C(F)(F)F)C(F)(F)F | 30.77 ± 0.58
35 | CCCCCCCn1cc[n+](C)c1.O=S(=O)([N-]S(=O)(=O)C(F)(F)F)C(F)(F)F | 29.5 ± 0.56
36 | CCCCCCCCn1cc[n+](C)c1.O=S(=O)([N-]S(=O)(=O)C(F)(F)F)C(F)(F)F | 29.4 ± 0.56
37 | CCCCCC[n+]1ccn(C)c1.O=S(=O)([N-]S(=O)(=O)C(F)(F)F)C(F)(F)F | 30.16 ± 0.57
38 | CCCCCCCCCCn1cc[n+](C)c1.O=S(=O)([N-]S(=O)(=O)C(F)(F)F)C(F)(F)F | 29.5 ± 0.56
39 | CCn1cc[n+](C)c1.O=S(=O)([N-]S(=O)(=O)C(F)(F)F)C(F)(F)F | 34.96 ± 0.65
40 | CCCn1cc[n+](C)c1.O=S(=O)([N-]S(=O)(=O)C(F)(F)F)C(F)(F)F | 32.79 ± 0.61

Same assay, conditions: 343.15 K, Ring tensiometer

Row | SMILES | surface tension liquid-gas [mN/m]
41 | CCCC[n+]1ccn(C)c1.O=S(=O)([N-]S(=O)(=O)C(F)(F)F)C(F)(F)F | 30.9 ± 0.58
42 | CCCCCn1cc[n+](C)c1.O=S(=O)([N-]S(=O)(=O)C(F)(F)F)C(F)(F)F | 30.31 ± 0.58
43 | CCCCCCCn1cc[n+](C)c1.O=S(=O)([N-]S(=O)(=O)C(F)(F)F)C(F)(F)F | 28.95 ± 0.55
44 | CCCCCCCCn1cc[n+](C)c1.O=S(=O)([N-]S(=O)(=O)C(F)(F)F)C(F)(F)F | 28.86 ± 0.55
45 | CCCCCC[n+]1ccn(C)c1.O=S(=O)([N-]S(=O)(=O)C(F)(F)F)C(F)(F)F | 29.62 ± 0.56
46 | CCCCCCCCCCn1cc[n+](C)c1.O=S(=O)([N-]S(=O)(=O)C(F)(F)F)C(F)(F)F | 28.68 ± 0.55
47 | CCn1cc[n+](C)c1.O=S(=O)([N-]S(=O)(=O)C(F)(F)F)C(F)(F)F | 34.57 ± 0.64
48 | CCCn1cc[n+](C)c1.O=S(=O)([N-]S(=O)(=O)C(F)(F)F)C(F)(F)F | 32.18 ± 0.6

Same assay, conditions: 353.15 K, Ring tensiometer

Row | SMILES | surface tension liquid-gas [mN/m]
49 | CCCCCCCn1cc[n+](C)c1.O=S(=O)([N-]S(=O)(=O)C(F)(F)F)C(F)(F)F | 28.29 ± 0.54

From the NIST ThermoML archive (doi:10.1021/je800069z)
